The record followed here is patent US10774092B2 (SALK INSTITUTE FOR BIOLOGICAL STUDIES, priority 2014, dated 2020).

Where a name gives a salt, the structure may show the parent alone.

Sequence of ULK1 (Homo sapiens, UniProt O75385) (O75385 whole entry, looked up): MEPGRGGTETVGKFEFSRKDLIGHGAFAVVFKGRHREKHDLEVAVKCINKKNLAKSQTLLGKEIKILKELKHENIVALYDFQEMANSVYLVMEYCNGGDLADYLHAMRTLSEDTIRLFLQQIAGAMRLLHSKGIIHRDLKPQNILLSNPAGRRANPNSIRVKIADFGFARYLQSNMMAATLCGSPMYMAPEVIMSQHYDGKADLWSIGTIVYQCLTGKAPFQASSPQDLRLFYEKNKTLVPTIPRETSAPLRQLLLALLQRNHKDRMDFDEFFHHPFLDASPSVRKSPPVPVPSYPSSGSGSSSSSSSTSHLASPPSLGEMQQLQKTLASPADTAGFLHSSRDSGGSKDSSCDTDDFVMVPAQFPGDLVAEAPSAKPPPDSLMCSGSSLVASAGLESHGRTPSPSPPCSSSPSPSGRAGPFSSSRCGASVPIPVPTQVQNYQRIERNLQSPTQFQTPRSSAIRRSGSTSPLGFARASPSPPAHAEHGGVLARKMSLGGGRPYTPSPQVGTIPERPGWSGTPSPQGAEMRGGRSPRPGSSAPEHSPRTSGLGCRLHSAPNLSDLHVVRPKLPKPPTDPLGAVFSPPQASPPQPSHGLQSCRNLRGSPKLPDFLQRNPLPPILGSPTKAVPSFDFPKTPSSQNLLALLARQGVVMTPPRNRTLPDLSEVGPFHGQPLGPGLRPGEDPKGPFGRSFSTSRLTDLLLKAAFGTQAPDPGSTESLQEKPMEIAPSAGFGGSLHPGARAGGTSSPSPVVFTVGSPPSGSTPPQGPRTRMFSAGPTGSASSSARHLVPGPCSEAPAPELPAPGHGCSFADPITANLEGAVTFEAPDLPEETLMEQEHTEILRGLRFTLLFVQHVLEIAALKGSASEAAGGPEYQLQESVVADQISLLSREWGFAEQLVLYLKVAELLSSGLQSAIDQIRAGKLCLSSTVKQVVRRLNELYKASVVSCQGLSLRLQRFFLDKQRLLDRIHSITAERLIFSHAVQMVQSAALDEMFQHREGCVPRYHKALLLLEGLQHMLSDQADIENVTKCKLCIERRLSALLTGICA

The target in the first test is ULK1. Description: ULK1 inhibition assay (Table 1). The class given is biochemical. Particulars: * = tested as a mixture of regioisomers.
For `O=C1CCc2cc(Nc3nc(NC4CC4)c4ccccc4n3)ccc2N1` [Example 263, 6-((4-(cyclopropylamino)quinazolin-2-yl)amino)-3,4-dihydroquinolin-2(1H)-one], the 50% inhibitory concentration (IC50) is over 2000 nM. Same read-out and setting: the value for `COc1cc(Nc2ncc(Br)c(Oc3ccccc3)n2)cc(OC)c1OC` [Example 266, 5-bromo-4-phenoxy-N-(3,4,5-trimethoxyphenyl)pyrimidin-2-amine] was under 200 nM.

For the compound `CNC(=O)c1cccc(Oc2nc(Nc3ccc4c(c3)CCC(=O)N4)ncc2Br)c1` [Example 268, 3-((5-bromo-2-((2-oxo-1,2,3,4-tetrahydroquinolin-6-yl)amino)pyrimidin-4-yl)oxy)-N-methylbenzamide], the 50% inhibitory concentration (IC50) fell in the range of 200 to 2000 nM. As to `COc1cc(Nc2ncc(Br)c(Oc3ccccc3C(=O)NC3CC3)n2)cc(OC)c1OC` [Example 270, 2-((5-bromo-2-((3,4,5-trimethoxyphenyl)amino)pyrimidin-4-yl)oxy)-N-cyclopropylbenzamide], the IC50 fell in the range of 200 to 2000 nM. For `COCc1ccccc1Oc1nc(Nc2cc(OC)c(OC)c(OC)c2)ncc1Br` [Example 274, 5-bromo-4-(2-(methoxymethyl)phenoxy)-N-(3,4,5-trimethoxyphenyl)pyrimidin-2-amine], the concentration for half-maximal inhibition (IC50) was under 200 nM.

As to `COc1cc(Nc2ncc(Br)c(Oc3ccccc3C(=O)N3CCCC3)n2)cc(OC)c1OC` [Example 277, (2-((5-bromo-2-((3,4,5-trimethoxyphenyl)amino)pyrimidin-4-yl)oxy)phenyl)(pyrrolidin-1-yl)methanone], the 50% inhibitory concentration (IC50) was under 200 nM. `FC(F)(F)c1cnc(Nc2cccc3ncccc23)nc1NC1CC1` [Example 278, N4-cyclopropyl-N2-(quinolin-5-yl)-5-(trifluoromethyl) pyrimidine-2,4-diamine]: the IC50 was over 2000 nM. Turning to `COc1cc(Nc2ncc(Br)c(Oc3ccccc3NC(=O)C3CC3)n2)cc(OC)c1OC` [Example 281, N-(2-((5-bromo-2-((3,4,5-trimethoxyphenyl)amino)pyrimidin-4-yl)oxy)phenyl)cyclopropanecarboxamide], the concentration for half-maximal inhibition (IC50) is under 200 nM. In the case of `N#Cc1cnc(NC2CC2)nc1Nc1ccc2c(c1)CCC(=O)N2` [Example 287], the IC50 was over 2000 nM. For the compound `COc1cc(Nc2ncc(Br)c(Oc3ccccc3-c3nc(C)co3)n2)cc(OC)c1OC` [Example 290, 5-bromo-4-(2-(4-methyloxazol-2-yl)phenoxy)-N-(3,4,5-trimethoxyphenyl)pyrimidin-2-amine], the IC50 was over 2000 nM. In the case of `O=[N+]([O-])c1cnc(NC2CC2)nc1NC1CC1` [Example 291b, N2,N4-dicyclopropyl-5-nitropyrimidine-2,4-diamine], the IC50 was over 2000 nM.

As for `COc1cc(Nc2ncc(Br)c(Nc3ccccc3)n2)cc(OC)c1OC` [Example 293, 5-bromo-N4-phenyl-N2-(3,4,5-trimethoxyphenyl)pyrimidine-2,4-diamine], the IC50 was under 200 nM. Consider `O=C1CCc2cc(Nc3ncc(C(F)(F)F)c(Oc4ccccc4)n3)ccc2N1` [Example 300a, 6-((4-phenoxy-5-(trifluoromethyl)pyrimidin-2-yl)amino)-3,4-dihydroquinolin-2(1H)-one], for which the IC50 was over 2000 nM. Turning to `O=C1CCc2cc(Nc3nc(Oc4ccccc4)ncc3C(F)(F)F)ccc2N1` [Example 300b, 6-((2-phenoxy-5-(trifluoromethyl)pyrimidin-4-yl)amino)-3,4-dihydroquinolin-2(1H)-one], the concentration for half-maximal inhibition (IC50) was over 2000 nM.

For the compound `FC(F)(F)c1cnc(Nc2ccc(Nc3ncc(C(F)(F)F)c(NC4CC4)n3)cc2)nc1NC1CC1` [Example 304b, N2,N2′-(1,4-phenylene)bis(N4-cyclopropyl-5-(trifluoromethyl)pyrimidine-2,4-diamine)], the half-maximal inhibitory concentration (IC50) is over 2000 nM. With `FC(F)(F)c1cnc(Nc2ccc3c(c2)CCNC3)nc1NC1CC1` [Example 309, N4-cyclopropyl-N2-(1,2,3,4-tetrahydroisoquinolin-6-yl)-5-(trifluoromethyl)pyrimidine-2,4-diamine.HCl], the IC50 is under 200 nM. On to `NCCCNc1nc(Nc2ccc3c(c2)CCC(=O)N3)ncc1C(F)(F)F` [Example 313, 6-((4-((3-aminopropyl)amino)-5-(trifluoromethyl)pyrimidin-2-yl)amino)-3,4-dihydroquinolin-2(1H)-one.HCl], for which the concentration for half-maximal inhibition (IC50) is under 200 nM.

As for `O=C1NC(=O)c2cc(Nc3ncc(C(F)(F)F)c(NC4CC4)n3)ccc21` [Example 314, 5-((4-(cyclopropylamino)-5-(trifluoromethyl)pyrimidin-2-yl)amino)isoindoline-1,3-dione], the IC50 is under 200 nM. Still for that read-out and setting: the value for `CNC(=O)CCOc1nc(Nc2cc(OC)c(OC)c(OC)c2)ncc1Br` [Example 316, 3-((5-bromo-2-((3,4,5-trimethoxyphenyl)amino)pyrimidin-4-yl)oxy)-N-methylpropanamide] was under 200 nM; that for `COc1cc(Nc2ncc(Br)c(Nc3ccccc3O)n2)cc(OC)c1OC` [Example 317, 2-((5-bromo-2-((3,4,5-trimethoxyphenyl)amino)pyrimidin-4-yl)amino)phenol] was under 200 nM.

Another test concerns the target ULK1 (Homo sapiens, UniProt O75385). Description: ULK1 inhibition assay (Table 1). In kind it is biochemical. Particulars: * = tested as a mixture of regioisomers.
As for `CC1CN1c1nc(Nc2ccc3c(c2)CCC(=O)N3)ncc1C(F)(F)F` (stereo not shown) [Example 183a, 6-((4-(2-methylaziridin-1-yl)-5-(trifluoromethyl)pyrimidin-2-yl)amino)-3,4-dihydroquinolin-2(1H)-one], the IC50 was over 2000 nM. For `O=C1CCc2cc(Nc3ncc(C(F)(F)F)c(Nc4ccc5[nH]ncc5c4)n3)ccc2N1` [Example 185, 6-((4-((1H-indazol-5-yl)amino)-5-(trifluoromethyl)pyrimidin-2-yl)amino)-3,4-dihydroquinolin-2(1H)-one], the IC50 is under 200 nM. The same measure, in the same setting: the result for `COc1cc(Nc2ncc(Br)c(NC3CC3)n2)cc(OC)c1OC` [Example 186, 5-bromo-N4-cyclopropyl-N2-(3,4,5-trimethoxyphenyl)pyrimidine-2,4-diamine] reads under 200 nM; that for `FC(F)(F)c1cnc(Nc2ccc3nn[nH]c3c2)nc1NC1CC1` [Example 188, N2-(1H-benzo[d][1,2,3]triazol-6-yl)-N4-cyclopropyl-5-(trifluoromethyl)pyrimidine-2,4-diamine], under 200 nM; that for `FC(F)(F)c1cnc(Nc2ccc3c(c2)OCCCO3)nc1NC1CC1` [Example 190, N4-cyclopropyl-N2-(3,4-dihydro-2H-benzo[b][1,4]dioxepin-7-yl)-5-(trifluoromethyl)pyrimidine-2,4-diamine], under 200 nM. As for `O=c1[nH]c2ncc(Nc3nc(Nc4ccc5c(c4)OCCO5)ncc3Br)cc2o1` [Example 192, 6-((5-bromo-2-((2,3-dihydrobenzo[b][1,4]dioxin-6-yl)amino)pyrimidin-4-yl)amino)oxazolo[4,5-b]pyridin-2(3H)-one], the 50% inhibitory concentration (IC50) is under 200 nM. With `O=C1CCc2cc(Nc3ncc(C(F)(F)F)c(NC4COC4)n3)ccc2N1` [Example 193, 6-((4-(oxetan-3-ylamino)-5-(trifluoromethyl)pyrimidin-2-yl)amino)-3,4-dihydroquinolin-2(1H)-one], the IC50 was over 2000 nM. For `FC(F)(F)c1cnc(Nc2cnc3[nH]ccc3c2)nc1NC1COC1` [Example 194, N4-(oxetan-3-yl)-N2-(1H-pyrrolo[2,3-b]pyridin-5-yl)-5-(trifluoromethyl)pyrimidine-2,4-diamine], the IC50 is under 200 nM.
